Source: patent US10131652B2, “Pyrimidinyloxy benzene derivatives as herbicides” (E. I. DU PONT DE NEMOURS AND COMPANY, priority 2014, dated 2018)
Like-named read-outs stand apart in the source and are kept apart here.

Tests used:
Experiment in all cases: Test E pre-/postemergence plant response
Type in all cases: in vivo
[1] = system: chickweed (common chickweed, Stellaria media); settings: scale 0 to 100, read-out: Plant response rating, Chickweed; for pest or weed control at 16 g/ha: 16 g ai/ha; for pest or weed control at 31 g/ha: 31 g ai/ha; for pest or weed control at 62 g/ha: 62 g ai/ha; for pest or weed control at 125 g/ha: 125 g ai/ha
Method in brief: (§1)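 Pre-emergence: seeds sown in silt loam soil and sprayed with test chemicals in a non-phytotoxic solvent/surfactant mix. Post-emergence: plants at 2–18 cm (1- to 4-leaf stage) in peat/vermiculite medium treated with the same formulation. Visual rating versus controls after 7–21 days, 0 (no effect) to 100 (complete control).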

[2] = system: field poppy (Papaver rhoeas); settings: scale 0 to 100, read-out: Plant response rating, Field Poppy; for pest or weed control at 16 g/ha: 16 g ai/ha; for pest or weed control at 31 g/ha: 31 g ai/ha; for pest or weed control at 62 g/ha: 62 g ai/ha; for pest or weed control at 125 g/ha: 125 g ai/ha
Method in brief: as §1

[3] = system: windgrass (Apera spica-venti); settings: scale 0 to 100, read-out: Plant response rating, Windgrass; for pest or weed control at 16 g/ha: 16 g ai/ha; for pest or weed control at 62 g/ha: 62 g ai/ha; for pest or weed control at 125 g/ha: 125 g ai/ha
Method in brief: as §1

[4] = system: spring wheat (Triticum aestivum); settings: scale 0 to 100, read-out: Plant response rating, Wheat, Spring; for plant injury at 16 g/ha: 16 g ai/ha; for plant injury at 62 g/ha: 62 g ai/ha; for plant injury at 125 g/ha: 125 g ai/ha
Method in brief: as §1

[5] = system: pigweed (Amaranthus retroflexus); settings: scale 0 to 100, read-out: Plant response rating, Pigweed; for pest or weed control at 16 g/ha: 16 g ai/ha; for pest or weed control at 31 g/ha: 31 g ai/ha; for pest or weed control at 62 g/ha: 62 g ai/ha; for pest or weed control at 125 g/ha: 125 g ai/ha
Method in brief: as §1

[6] = system: winter wheat (Triticum aestivum); settings: scale 0 to 100, read-out: Plant response rating, Wheat, Winter; for plant injury at 16 g/ha: 16 g ai/ha; for plant injury at 62 g/ha: 62 g ai/ha; for plant injury at 125 g/ha: 125 g ai/ha
Method in brief: as §1

[7] = system: canarygrass (Phalaris minor); settings: scale 0 to 100, read-out: Plant response rating, Canarygrass; for pest or weed control at 16 g/ha: 16 g ai/ha; for pest or weed control at 31 g/ha: 31 g ai/ha; for pest or weed control at 62 g/ha: 62 g ai/ha; for pest or weed control at 125 g/ha: 125 g ai/ha
Method in brief: as §1

[8] = system: spring barley (Hordeum vulgare); settings: for plant injury at 16 g/ha: 16 g ai/ha; for plant injury at 31 g/ha: 31 g ai/ha; for plant injury at 62 g/ha: 62 g ai/ha; for plant injury at 125 g/ha: 125 g ai/ha
Method in brief: as §1

[9] = system: wild radish (Raphanus raphanistrum); settings: scale 0 to 100, read-out: Plant response rating, Radish, Wild; for pest or weed control at 16 g/ha: 16 g ai/ha; for pest or weed control at 31 g/ha: 31 g ai/ha; for pest or weed control at 62 g/ha: 62 g ai/ha; for pest or weed control at 125 g/ha: 125 g ai/ha
Method in brief: as §1

[10] = system: Italian ryegrass (Lolium multiflorum); settings: scale 0 to 100, read-out: Plant response rating, Ryegrass, Italian; for pest or weed control at 16 g/ha: 16 g ai/ha; for pest or weed control at 31 g/ha: 31 g ai/ha; for pest or weed control at 62 g/ha: 62 g ai/ha; for pest or weed control at 125 g/ha: 125 g ai/ha
Method in brief: as §1

kochia (Kochia scoparia) = settings: Bassia scoparia, scale 0 to 100, read-out: Plant response rating, Kochia; for pest or weed control at 16 g/ha: 16 g ai/ha; for pest or weed control at 31 g/ha: 31 g ai/ha; for pest or weed control at 62 g/ha: 62 g ai/ha; for pest or weed control at 125 g/ha: 125 g ai/ha
Method in brief: as §1

[11] = post-emergence, 31 g ai/ha, Postemergence
[12] = post-emergence, Postemergence, scale 0 to 100, read-out: Plant response rating, Barley, Spring
[13] = pre-emergence, Preemergence, scale 0 to 100, read-out: Plant response rating, Barley, Spring

Fc1cccc(Oc2ncc(Cl)cn2)c1-c1cc(C(F)(F)F)on1 [Compound 168, 5-chloro-2-[2-[5-(trifluoromethyl)-3-isoxazolyl]-3-fluorophenoxy]pyrimidine]
pest or weed control at 16 g/ha ([1]; post-emergence, Postemergence): 50% | pest or weed control at 31 g/ha ([1]; post-emergence, Postemergence): 45% | pest or weed control at 62 g/ha ([1]; post-emergence, Postemergence): 70% | pest or weed control at 125 g/ha ([1]; post-emergence, Postemergence): 90% | pest or weed control at 16 g/ha ([1]; pre-emergence, Preemergence): 100% | pest or weed control at 31 g/ha ([1]; pre-emergence, Preemergence): 80% | pest or weed control at 62 g/ha ([1]; pre-emergence, Preemergence): 100% | pest or weed control at 125 g/ha ([1]; pre-emergence, Preemergence): 100% | pest or weed control at 16 g/ha ([2]; post-emergence, Postemergence): 55% | pest or weed control at 31 g/ha ([2]; post-emergence, Postemergence): 85% | pest or weed control at 62 g/ha ([2]; post-emergence, Postemergence): 100% | pest or weed control at 125 g/ha ([2]; post-emergence, Postemergence): 100% | pest or weed control at 16 g/ha ([2]; pre-emergence, Preemergence): 80% | pest or weed control at 31 g/ha ([2]; pre-emergence, Preemergence): 100% | pest or weed control at 62 g/ha ([2]; pre-emergence, Preemergence): 100% | pest or weed control at 125 g/ha ([2]; pre-emergence, Preemergence): 100% | pest or weed control at 16 g/ha ([3]; post-emergence, Postemergence): 10% | pest or weed control at 31 g/ha [3, 11]: 15% | pest or weed control at 62 g/ha ([3]; post-emergence, Postemergence): 25% | pest or weed control at 125 g/ha ([3]; post-emergence, Postemergence): 40% | pest or weed control at 16 g/ha ([3]; pre-emergence, Preemergence): 0% | pest or weed control at 62 g/ha ([3]; pre-emergence, Preemergence): 100% | pest or weed control at 125 g/ha ([3]; pre-emergence, Preemergence): 100% | plant injury at 16 g/ha ([4]; post-emergence, Postemergence): 10% | plant injury at 31 g/ha [4, 11]: 20% | plant injury at 62 g/ha ([4]; post-emergence, Postemergence): 25% | plant injury at 125 g/ha ([4]; post-emergence, Postemergence): 40% | plant injury at 16 g/ha ([4]; pre-emergence, Preemergence): 15% | plant injury at 62 g/ha ([4]; pre-emergence, Preemergence): 20% | plant injury at 125 g/ha ([4]; pre-emergence, Preemergence): 30% | pest or weed control at 16 g/ha ([5]; post-emergence, Postemergence): 90% | pest or weed control at 31 g/ha ([5]; post-emergence, Postemergence): 80% | pest or weed control at 62 g/ha ([5]; post-emergence, Postemergence): 95% | pest or weed control at 125 g/ha ([5]; post-emergence, Postemergence): 95% | pest or weed control at 16 g/ha ([5]; pre-emergence, Preemergence): 55% | pest or weed control at 31 g/ha ([5]; pre-emergence, Preemergence): 100% | pest or weed control at 62 g/ha ([5]; pre-emergence, Preemergence): 100% | pest or weed control at 125 g/ha ([5]; pre-emergence, Preemergence): 100% | plant injury at 16 g/ha ([6]; post-emergence, Postemergence): 5% | plant injury at 31 g/ha [6, 11]: 10% | plant injury at 62 g/ha ([6]; post-emergence, Postemergence): 25% | plant injury at 125 g/ha ([6]; post-emergence, Postemergence): 35% | plant injury at 16 g/ha ([6]; pre-emergence, Preemergence): 5% | plant injury at 62 g/ha ([6]; pre-emergence, Preemergence): 10% | plant injury at 125 g/ha ([6]; pre-emergence, Preemergence): 30% | pest or weed control at 16 g/ha ([7]; post-emergence, Postemergence): 15% | pest or weed control at 31 g/ha ([7]; post-emergence, Postemergence): 15% | pest or weed control at 62 g/ha ([7]; post-emergence, Postemergence): 25% | pest or weed control at 125 g/ha ([7]; post-emergence, Postemergence): 55% | pest or weed control at 16 g/ha ([7]; pre-emergence, Preemergence): 15% | pest or weed control at 31 g/ha ([7]; pre-emergence, Preemergence): 15% | pest or weed control at 62 g/ha ([7]; pre-emergence, Preemergence): 100% | pest or weed control at 125 g/ha ([7]; pre-emergence, Preemergence): 100% | plant injury at 16 g/ha [8, 12]: 10% | plant injury at 31 g/ha [8, 12]: 15% | plant injury at 62 g/ha [8, 12]: 15% | plant injury at 125 g/ha ([8]; post-emergence, Postemergence, scale 0 to 100 (0 no effect, 100 complete control), read-out: Plant response rating, Barley, Spring): 25% | plant injury at 16 g/ha [8, 13]: 0% | plant injury at 31 g/ha [8, 13]: 15% | plant injury at 62 g/ha [8, 13]: 30% | plant injury at 125 g/ha [8, 13]: 35% | pest or weed control at 16 g/ha ([9]; post-emergence, Postemergence): 70% | pest or weed control at 31 g/ha ([9]; post-emergence, Postemergence): 75% | pest or weed control at 62 g/ha ([9]; post-emergence, Postemergence): 80% | pest or weed control at 125 g/ha ([9]; post-emergence, Postemergence): 85% | pest or weed control at 16 g/ha ([9]; pre-emergence, Preemergence): 0% | pest or weed control at 31 g/ha ([9]; pre-emergence, Preemergence): 45% | pest or weed control at 62 g/ha ([9]; pre-emergence, Preemergence): 100% | pest or weed control at 125 g/ha ([9]; pre-emergence, Preemergence): 100% | pest or weed control at 16 g/ha ([10]; post-emergence, Postemergence): 5% | pest or weed control at 31 g/ha ([10]; post-emergence, Postemergence): 10% | pest or weed control at 62 g/ha ([10]; post-emergence, Postemergence): 20% | pest or weed control at 125 g/ha ([10]; post-emergence, Postemergence): 25% | pest or weed control at 16 g/ha ([10]; pre-emergence, Preemergence): 0% | pest or weed control at 31 g/ha ([10]; pre-emergence, Preemergence): 0% | pest or weed control at 62 g/ha ([10]; pre-emergence, Preemergence): 30% | pest or weed control at 125 g/ha ([10]; pre-emergence, Preemergence): 75% | pest or weed control at 16 g/ha (kochia (Kochia scoparia); post-emergence, Postemergence): 80% | pest or weed control at 31 g/ha (kochia (Kochia scoparia); post-emergence, Postemergence): 80% | pest or weed control at 62 g/ha (kochia (Kochia scoparia); post-emergence, Postemergence): 85% | pest or weed control at 125 g/ha (kochia (Kochia scoparia); post-emergence, Postemergence): 85% | pest or weed control at 16 g/ha (kochia (Kochia scoparia); pre-emergence, Preemergence): 35% | pest or weed control at 31 g/ha (kochia (Kochia scoparia); pre-emergence, Preemergence): 100% | pest or weed control at 62 g/ha (kochia (Kochia scoparia); pre-emergence, Preemergence): 100% | pest or weed control at 125 g/ha (kochia (Kochia scoparia); pre-emergence, Preemergence): 100%
